Measured values published in patent publication US8608842B2, “Infrared absorbing composition, infrared absorbing ink, recorded article, image recording method, and image detecting method” (FUJIFILM Corporation, priority 2010, dated 2013).

What was measured:
Type in all cases: physicochemical
[1] = Bar code pattern reading (PCS) of printed article before and after xenon light irradiation (light resistance); conditions: ink solvent toluene/methyl isobutyl ketone = 70/30; xenon light of 70,000 lux, 200 hours
Protocol: By mixing the components of the composition shown below, the infrared absorbing printing ink (1) was prepared.
By using each of the infrared absorbing printing ink obtained above, a bar code pattern was formed on a regular paper (trade name: MP-120, manufactured by PLUS Corporation), i.e., a base paper, by Gravure printing.
Subsequently, on the formed bar code pattern, another bar code pattern was additionally formed by using the infrared absorbing ink (2) having the composition shown below.
Next, on top of the bar code patterns formed by disposing two layers, three kinds of process inks having infrared transmittance (FDOL Yellow, FDOL Magenta, and FDOL Cyan, manufactured by TOYO INK MFG. CO., LTD. (trade names, manufactured by TOYO INK MFG. CO., LTD.) were further applied by Gravure printing to form a colored layer made of three visible colors (cyan, magenta, and yellow). As a result, a printed article having a bar code pattern disposed inside the matter was produced.
Two kinds of semiconductor laser beam having wavelengths of 830 nm and 905 nm respectively were irradiated onto the thus obtained printed article, and the detection was made by using a filter which cuts off the emission light having wavelength of 950 nm or less. As a result, it was possible to detect the pattern formed by the infrared absorbing ink.
Subsequently, xenon light of 70,000 lux was irradiated continuously for 200 hours onto the printed article by using a xenon lamp. After that, the reading state of the bar code pattern after the irradiation was evaluated. For the evaluation, PCS (print•contrast•signal) of 0.6 or more was evaluated as “good,” and PCS (print•contrast•signal) of less than 0.6 was evaluated as “bad.” The evaluation results are shown in Table 2 below.
The printed article was prepared in the same manner as Example 1 except that the solvent (a mixture solvent of toluene and methyl isobutyl ketone) in the composition of the infrared absorbing ink (1) and (2) is replaced with n-octane (SP value: 7.6), butyl acetate (SP value: 8.5), or isopropyl alcohol (IPA; SP values: 11.5), and evaluated.
The comparative printed article was prepared in the same manner as Example 1 except that the solvent (a mixture solvent of toluene and methyl isobutyl ketone) in the composition of the infrared absorbing ink (1) and (2) is replaced with n-pentane (SP value: 7.0; Example 2) or ethanol (SP value: 12.7; Example 3), and evaluated.

[2] = Ultraviolet curable ink of Example 4: reflected light of mark for copy protection, before and after xenon irradiation; conditions: xenon light of 70,000 lux, 72 hours; variation compared to the value before irradiation
Protocol: By mixing the components of the composition shown below, an ultraviolet curable ink having an infrared absorbing property was prepared.
By using the ultraviolet curable ink thus obtained, a mark for copy protection was printed on the same base paper as that used in Example 1 by Gravure printing. On top of the printed mark for copy protection, each of the three kinds of a process ink (FDOL Yellow, FDOL Magenta, and FDOL Cyan, trade names, manufactured by TOYO INK MFG. CO., LTD.) was applied as a layer by Gravure printing, or a mixture ink in which the three kinds of a process ink are mixed was applied as a layer by Gravure printing to hide the mark for copy protection, thus obtaining a printed article.
The mark for copy protection that is hidden by the process ink was irradiated with infrared light using a linear sensor (trade name: TCD1500C, manufactured by Toshiba) in which the infrared cut-off filter of linear sensor was replaced with an infrared transmitting filter (trade name: IR83, manufactured by Hoya) as a detection device, and the reflected light was detected simultaneously.
The reflection light intensity in the area of the mark for copy protection at the time of detecting the mark was divided by the reflection light intensity of the area outside the mark for copy protection. The resulting value of the comparative infrared absorbing agent A was set to 1, and a ratio of the resulting value with respect to the resulting value of the comparative infrared absorbing agent A was calculated for each compound.
In addition, the obtained printed article was irradiated continuously with xenon light of 70,000 lux for 72 hours by using a Xenon lamp. After the irradiation, similar to above, the reflection light intensity of the area of the mark for copy protection was divided by the reflection light intensity of the area outside the mark for copy protection, and the variation ratio [%] compared to the value before the irradiation was calculated to use it as an index for evaluation of light resistance.

[3] = Solubility of IR coloring material in toluene at 25° C.; conditions: toluene, 25° C.
Protocol: Specifics are as follows.
First, a tetrahydrofuran (THF) solution prepared by adding the IR coloring material to TI-IF is measured by a spectrophotometer and a calibration curve is constructed. Next, a liquid is prepared by adding the IR coloring material to toluene to the level that there is a part of the coloring material left undissolved. The resulting liquid is subjected to ultrasonication for 10 minutes while being maintained at 25° C., and allowed to stand overnight at 25° C. The THF solution obtained after the standing is filtered using a 0.2 μm filter. The filtrate is diluted so that it falls within the linear range of the calibration curve, the absorbance is measured, and quantification is made using the calibration curve.
The solubility shown in Table 1 was measured according to the method described below. Specifics are as follows.
First, the THF solution prepared by adding the IR coloring material to tetrahydrofuran (THF) was measured by a spectrophotometer, and the calibration curve was established. Next, a liquid was prepared by adding the IR coloring material to toluene to the level that there is a part of coloring material left undissolved. The resulting liquid was subjected to ultrasonication for 10 minutes while being kept at 25° C., and allowed to stand overnight at 25° C. The THF solution obtained after the standing was filtered using a 0.2 μm filter. The filtrate was diluted so that it falls within the linear range of the calibration curve, and the absorbance was measured. Based on the measured value, the solubility was quantified using the calibration curve.

Substance: N,N,N′,N′-tetrakis(p-di-n-butylaminophenyl)-p-phenylene diaminium perchlorate salt [reference compound]
- Reading after irradiation [1]: Bad (PCS (print•contrast•signal) of less than 0.6 was evaluated as “bad.”)
- Variation amount after irradiation [%] [2]: 16%
- Solubility [mg/ml] Solvent: toluene [3]: 32 mg/mL
